Test results from patent publication US8497075B2, “Methods of identifying a modulator that inhibits the binding between Epstein-Barr virus induced receptor 2 and cholesterol derived ligands” (Novartis AG, priority 2008, dated 2013).
Read-outs that look alike come from different tables or passages of the source.

Experiments:
Design in all cases: expressed in transfected cells; host or cells: CHO-K1 expressing apoaequorin (CHO-Aeq) with Gqi5; line E2
[1] = target: T1, hEBI2 (Homo sapiens, UniProt P32249); assay: calcium fluorescence (FLIPR); type: cell-based
T1 sequence (P32249 whole entry): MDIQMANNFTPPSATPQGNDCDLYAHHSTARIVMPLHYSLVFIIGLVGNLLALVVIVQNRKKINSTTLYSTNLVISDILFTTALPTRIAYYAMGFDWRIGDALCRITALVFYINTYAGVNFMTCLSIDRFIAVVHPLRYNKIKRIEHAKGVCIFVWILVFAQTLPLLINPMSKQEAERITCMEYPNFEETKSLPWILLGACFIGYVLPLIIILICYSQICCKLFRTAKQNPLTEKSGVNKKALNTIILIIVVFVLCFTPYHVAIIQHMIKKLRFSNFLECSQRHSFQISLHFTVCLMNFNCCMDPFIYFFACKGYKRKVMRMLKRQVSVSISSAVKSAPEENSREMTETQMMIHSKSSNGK
Method: If not stated otherwise compounds were dissolved at 10 mM in DMSO or ethanol (cholesterol, 25MDC). Serial dilutions were carried out in 90% DMSO (FLIPR, GTPgS) or assay buffer (binding assay). For cell based assays final DMSO concentrations is kept below 1%.
If not stated otherwise, the same Chinese hamster ovary (CHO) cell line called E2 which was used for the ligand identification was used in these experiments. This cell line is expressing (1) the recombinant human EBI2 receptor, (2) the promiscuous Gqi5 protein as well as (3) apo-aequorin.
Cells were seeded in black/clear bottom, poly-D-Lysine coated 384-well plates at a cell density of 10,000 cells/25 μL/well, using culture medium. Cells were cultured for 24 hours at 37° C./5% CO2. Culture medium was removed and for cell loading, 20 μl per well of loading buffer (Calcium-4 no wash dye) were distributed into the wells and the plates were incubated for 60 min at 37° C. in 5% CO2. With the FLIPR pipettor, 10 μl of the different compounds were added to the cells and the subsequent fluorescent changes monitored for 3 minutes. Using the FLIPR software tool, 2 values of fluorescence calcium responses were exported: Fmax, the fluorescence at the peak and Fbasal corresponding to the value prior to compound injection. From these two values, the calcium response is normalized with respect to the calcium baseline values using dF/F=(Fmax−Fbasal)/Fbasal. The maximum dF/F is called Emax.

[2] = target: T1, hEBI2; assay: GTPγS assay on EBI2 membranes; type: biochemical
Method: (§1) The cell suspension was then homogenized using a Dounce homogenizer (10 strokes) with a driller. After centrifugation at 110000×g for 45 minutes and removal of the supernatant, pellets were resuspended in sucrose buffer (50 mM Tris pH7.2, 250 mM sucrose, 10% glycerol) by vortexing. The suspension was again homogenize using a Dounce homogenizer (10 strokes) and spun at 100000×g for 45 minutes. The supernatant was discarded, the pellet resuspended in sucrose buffer, protein concentration determined, aliquoted and frozen at −80° C. These membrane preparations were used in binding as well as GTPgS assays.
Ten micrograms of EBI2 membranes are dissolved in 40 μl of buffer A (20 mM Hepes pH 7.4, 100 mM NaCl, 1.5 mM MgCl2, Saponin 10 μg/ml) supplemented with 10 μM GDP. After addition of […] scintilation proximity assay (SPA) beads (100 μg/well, Amersham, RPNQ0001) components are gently mixed and incubated at RT for 15 minutes. Twenty microliters of compound diluted in buffer A and 20 μl of GTPγ^35S (Perkin Elmer NEG030X) is added before incubation for one hour at RT. Plates are transferred and counted in a TopCount (Perkin Elmer NXT HTS™) and counts are analysed plotted and to determine half maximal concentrations of activation using standard software (Prism™, GraphPad Software Inc.).

[3] = target: T1, hEBI2; assay: [3H] 7a,25DHC radio-ligand binding assay (SPA), IC50 determination
Method: as §1
Lyophilized wheat germ agglutinin scintilation proximity assay (SPA) beads (RPNQ0001) were purchased from GE Healthcare (Buckinghamshire, UK). One vial (500 mg) is reconstituted by adding 5 mL of distilled water to give a final concentration of 100 mg/mL. Reconstituted SPA beads must be stored at 4° C., but must not be frozen. [3H]-7a,25-OHC, was synthesized by reduction of the 7-keto, 25DHC in the presence of 3H-L-selectride.
The SPA assay was performed in a final volume of 50 μl per well in a 384-well polystyrene Opti plate. The components were added into the wells as follows: • 10 μl tested compounds in 50 mM Tris; 100 mM NaCl; 5 mM MgCl2 and 0.1% Cyclodextrine.
Total binding was determined by the addition of 10 μl of 50 mM Tris; 100 mM NaCl; 5 mM MgCl2 and 0.1% Cyclodextrine and non-specific binding was determined by the addition of 10 μl NVP-BYX998-NX-4 (final concentration of 10 μM). • 20 μL of 10 nM final [3H]-BYX998 in assay buffer (50 mM Tris-HCl, 100 mM NaCl, 5 mM MgCl2 and 0.1% Cyclodextrine). • 20 μL of a mixed bead and membrane suspension in assay buffer, in order to get a final concentration of 20 μg membranes/well and 200 μg beads/well.
The plates were sealed and shaken at room temperature for 10 minutes then allowed to stand at room temperature for at least 12 hours. The plates were counted using a Perkin Elmer TopCount reader, each well being counted for 1 minute.
Each IC50 determination was performed with 11 concentrations.
A standard data reduction algorithm was used to calculate the percentage of specific binding in the presence of test compound as follows: ((B−NSB)/(Total−NSB))·100, where B=Binding in the presence of test compound (in cpm) NSB=Non-specific binding in the presence of excess inhibitor (in cpm) Total=Binding in the absence of test compound (in cpm) Curve fitting of the normalized concentration response curves using a four parameter logistic fit is then performed using XLfit (v.2 or v.4, IDBS, Guildford, UK). The equation used is XLfit equation no. […] By default, min is fixed at 0, whereas max is not fixed.

[4] = 10 nM radioligand, n = 3, read-out: [^3H] 7a,25DHC Binding IC50

CC(CO)CCC[C@@H](C)[C@H]1CC[C@H]2[C@@H]3[C@H](O)C=C4C[C@@H](O)CC[C@]4(C)[C@H]3CC[C@]12C (stereo partly drawn) [7a,27DHC, cholest-5-ene-3b,7a,27-triol] was tested. Which EC50 [1] did it give?
The EC50 was 4.8 nM.

And the EC50 [2]?
Its EC50 is 5.1 nM.

What about the IC50 [3] of the same compound?
The IC50 was 362 nM.

What does the source list for C[C@H](CCCC(C)(C)O)[C@H]1CC[C@H]2[C@@H]3[C@@H](O)C=C4C[C@@H](O)CC[C@]4(C)[C@H]3CC[C@]12C [7b,25DHC, cholest-5-ene-3b,7b,25-triol]?
EC50 ([1]; n = 3-4, read-out: FLIPR EC50): 121 nM; EC50 ([2]; n = 3-4, read-out: GTPgS EC50): 221 nM; IC50 [3, 4]: 2630 nM

Which results are given for C[C@H](CCCC(C)(C)O)[C@H]1CC[C@H]2[C@@H]3[C@H](O)C=C4C[C@@H](O)CC[C@]4(C)[C@H]3CC[C@]12C [7a,25DHC, cholest-5-ene-3b,7a,25-triol]?
EC50 [1]: 1.9 nM; EC50 [2]: 7.5 nM; IC50 [3, 4]: 70.4 nM
